According to US20240279215A1 (Cytokinetics, Incorporated, priority 2022, published 2024):

Target: human NAMPT (Homo sapiens (Human), UniProt P43490)
Assay: NMN fluorescence biochemical assay (human recombinant NAMPT enzyme assay)
How it was run: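 Activation of recombinant human NAMPT (6 nM) was tested with 2.5 mM ATP, 20 μM PRPP and 150 μM nicotinamide in 50 mM HEPES pH 7.2 for 60 min at ambient temperature. NMN was derivatized with acetophenone/KOH/formic acid and read by fluorescence (355/460 nm) after 40 min.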

Sequence of human NAMPT (P43490 whole entry): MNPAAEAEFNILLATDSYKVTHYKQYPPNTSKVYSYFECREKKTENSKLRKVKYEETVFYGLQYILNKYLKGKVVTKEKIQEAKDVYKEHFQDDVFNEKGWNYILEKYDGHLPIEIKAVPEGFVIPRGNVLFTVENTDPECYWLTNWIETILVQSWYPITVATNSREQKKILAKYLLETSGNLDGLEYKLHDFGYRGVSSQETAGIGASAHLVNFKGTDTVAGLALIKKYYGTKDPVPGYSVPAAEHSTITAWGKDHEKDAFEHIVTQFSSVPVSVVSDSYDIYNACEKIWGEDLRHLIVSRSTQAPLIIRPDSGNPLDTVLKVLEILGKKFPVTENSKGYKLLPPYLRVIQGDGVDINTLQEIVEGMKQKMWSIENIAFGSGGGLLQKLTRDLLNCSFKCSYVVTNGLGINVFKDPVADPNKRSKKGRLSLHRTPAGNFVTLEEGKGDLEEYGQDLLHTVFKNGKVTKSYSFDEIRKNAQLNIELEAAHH

SMILES | AC1.4 Human | EC50
O=C(Nc1ccc(CC2CC3(C2)CN(C2COC2)C3)c(F)c1)OCc1cnco1 [Compound 397, oxazol-5-ylmethyl (3-fluoro-4-((2-(oxetan-3-yl)-2-azaspiro[3.3]heptan-6-yl)methyl)phenyl)carbamate] | 0.98 µM | 42.6 µM
CN(C)C(=O)N1CC2(CC(Cc3ccc(NC(=O)OCc4cnco4)cc3F)C2)C1 [Compound 398, oxazol-5-ylmethyl (4-((2-(dimethylcarbamoyl)-2-azaspiro[3.3]heptan-6-yl)methyl)-3-fluorophenyl)carbamate] | 0.08 µM | 3.29 µM
CC(=O)N1CC2(CC(c3ccc(NC(=O)OCc4cnco4)cc3F)C2)C1 [Compound 401, oxazol-5-ylmethyl (4-(2-acetyl-2-azaspiro[3.3]heptan-6-yl)-3-fluorophenyl)carbamate] | 0.04 µM | 3.37 µM
CCC(=O)N1CC2(CC(Cc3ccc(NC(=O)OCc4cnco4)cc3F)C2)C1 [Compound 402, oxazol-5-ylmethyl (3-fluoro-4-((2-propionyl-2-azaspiro[3.3]heptan-6-yl)methyl)phenyl)carbamate] | 0.07 µM | 12.4 µM
CC(C)C(=O)N1CC2(CC(Cc3ccc(NC(=O)OCc4cnco4)cc3F)C2)C1 [Compound 403, oxazol-5-ylmethyl (3-fluoro-4-((2-isobutyryl-2-azaspiro[3.3]heptan-6-yl)methyl)phenyl)carbamate] | 0.15 µM | 7.47 µM
CS(=O)(=O)N1CC2(CC(Cc3ccc(NC(=O)OCc4cnco4)cc3F)C2)C1 [Compound 404, oxazol-5-ylmethyl (3-fluoro-4-((2-(methylsulfonyl)-2-azaspiro[3.3]heptan-6-yl)methyl)phenyl)carbamate] | 0.10 µM | 14.3 µM
CN(C)S(=O)(=O)N1C2CCC1CC(Cc1ccc(NC(=O)OCc3cnco3)cc1)C2 (stereo not shown) [Compound 405, oxazol-5-ylmethyl (4-((8-(N,N-dimethylsulfamoyl)-8-azabicyclo[3.2.1]octan-3-yl)methyl)phenyl)carbamate] | 0.11 µM | 3.42 µM
CS(=O)(=O)N1C2CCC1CC(Cc1ccc(NC(=O)OCc3cnco3)cc1)C2 (stereo not shown) [Compound 406, oxazol-5-ylmethyl (4-((8-(methylsulfonyl)-8-azabicyclo[3.2.1]octan-3-yl)methyl)phenyl)carbamate] | 0.13 µM | 6.01 µM
COC(=O)N1C2CCC1CC(Cc1ccc(NC(=O)OCc3cnco3)cc1)C2 (stereo not shown) [Compound 407, methyl 3-(4-(((oxazol-5-ylmethoxy)carbonyl)amino)benzyl)-8-azabicyclo[3.2.1]octane-8-carboxylate] | 0.26 µM | 8.55 µM
CN(C)C(=O)N1C2CCC1CC(Cc1ccc(NC(=O)OCc3cnco3)cc1)C2 (stereo not shown) [Compound 408, oxazol-5-ylmethyl (4-((8-(dimethylcarbamoyl)-8-azabicyclo[3.2.1]octan-3-yl)methyl)phenyl)carbamate] | 0.05 µM | 3.44 µM
CC(C)C(=O)N1C2CCC1CC(Cc1ccc(NC(=O)OCc3cnco3)cc1)C2 (stereo not shown) [Compound 409, oxazol-5-ylmethyl (4-((8-isobutyryl-8-azabicyclo[3.2.1]octan-3-yl)methyl)phenyl)carbamate] | 0.20 µM | 26.8 µM
CC(=O)N1C2CCC1CC(Cc1ccc(NC(=O)OCc3cnco3)cc1)C2 (stereo not shown) [Compound 410, oxazol-5-ylmethyl (4-((8-acetyl-8-azabicyclo[3.2.1]octan-3-yl)methyl)phenyl)carbamate] | 0.13 µM | 4.19 µM
CN(C)C(=O)N1CCC(c2ccc(NC(=O)OCc3cnco3)cc2F)CC1 [Compound 411, oxazol-5-ylmethyl (4-(1-(dimethylcarbamoyl)piperidin-4-yl)-3-fluorophenyl)carbamate] | 0.04 µM | 19 µM
CCC(=O)N1CCC(c2ccc(NC(=O)OCc3cnco3)cc2F)CC1 [Compound 412, oxazol-5-ylmethyl (3-fluoro-4-(1-propionylpiperidin-4-yl)phenyl)carbamate] | 0.05 µM | 48.3 µM
CC(=O)N1CCC(c2ccc(NC(=O)OCc3cnco3)cc2F)CC1 [Compound 413, oxazol-5-ylmethyl (4-(1-acetylpiperidin-4-yl)-3-fluorophenyl)carbamate] | 0.10 µM | 25.6 µM
CC(C)C(=O)N1CCC(c2ccc(NC(=O)OCc3cnco3)cc2F)CC1 [Compound 414, oxazol-5-ylmethyl (3-fluoro-4-(1-isobutyrylpiperidin-4-yl)phenyl)carbamate] | 0.03 µM | 26.2 µM
CS(=O)(=O)N1CCC(c2ccc(NC(=O)OCc3cnco3)cc2F)CC1 [Compound 415, oxazol-5-ylmethyl (3-fluoro-4-(1-(methylsulfonyl)piperidin-4-yl)phenyl)carbamate] | 0.18 µM | 11.9 µM
CN(C)S(=O)(=O)N1CCC(c2ccc(NC(=O)OCc3cnco3)cc2F)CC1 [Compound 416, oxazol-5-ylmethyl (4-(1-(N,N-dimethylsulfamoyl)piperidin-4-yl)-3-fluorophenyl)carbamate] | 0.07 µM | 2.58 µM

SMILES | AC1.4 Human | EC50
COC(=O)N1CCC(c2ccc(NC(=O)OCc3cnco3)cc2F)CC1 [Compound 417, methyl 4-(2-fluoro-4-(((oxazol-5-ylmethoxy)carbonyl)amino)phenyl)piperidine-1-carboxylate] | 0.18 µM | 27 µM
CCS(=O)(=O)N1CCC(Cc2ccc(NC(=O)OCc3cnco3)cc2)CC12CC2 (stereo not shown) [Compound 418, oxazol-5-ylmethyl (4-((4-(ethylsulfonyl)-4-azaspiro[2.5]octan-7-yl)methyl)phenyl)carbamate] | 0.18 µM | 5.97 µM
CS(=O)(=O)N1CCC(Cc2ccc(NC(=O)OCc3cnco3)cc2)CC12CC2 (stereo not shown) [Compound 419, oxazol-5-ylmethyl (4-((4-(methylsulfonyl)-4-azaspiro[2.5]octan-7-yl)methyl)phenyl)carbamate] | 0.32 µM | 12.7 µM
CS(=O)(=O)N1CC2CCC(C1)C2Cc1ccc(NC(=O)OCc2cnco2)cc1 (stereo not shown) [Compound 420, oxazol-5-ylmethyl (4-((3-(methylsulfonyl)-3-azabicyclo[3.2.1]octan-8-yl)methyl)phenyl)carbamate] | 0.12 µM | 6.55 µM
COC(=O)N1CC2CCC(C1)C2Cc1ccc(NC(=O)OCc2cnco2)cc1 (stereo not shown) [Compound 421, methyl 8-(4-(((oxazol-5-ylmethoxy)carbonyl)amino)benzyl)-3-azabicyclo[3.2.1]octane-3-carboxylate] | 0.13 µM | 2.33 µM
CN(C)C(=O)N1CC2CCC(C1)C2Cc1ccc(NC(=O)OCc2cnco2)cc1 (stereo not shown) [Compound 422, oxazol-5-ylmethyl (4-((3-(dimethylcarbamoyl)-3-azabicyclo[3.2.1]octan-8-yl)methyl)phenyl)carbamate] | 0.07 µM | 11.5 µM
CC(C)C(=O)N1CC2CCC(C1)C2Cc1ccc(NC(=O)OCc2cnco2)cc1 (stereo not shown) [Compound 423, oxazol-5-ylmethyl (4-((3-isobutyryl-3-azabicyclo[3.2.1]octan-8-yl)methyl)phenyl)carbamate] | 0.18 µM | 15.4 µM
CC(=O)N1CC2CCC(C1)C2Cc1ccc(NC(=O)OCc2cnco2)cc1 (stereo not shown) [Compound 424, oxazol-5-ylmethyl (4-((3-acetyl-3-azabicyclo[3.2.1]octan-8-yl)methyl)phenyl)carbamate] | 0.04 µM | 1.13 µM
O=C(Nc1ccc(CC2C3CCC2CN(C2COC2)C3)cc1)OCc1cnco1 (stereo not shown) [Compound 425, oxazol-5-ylmethyl (4-((3-(oxetan-3-yl)-3-azabicyclo[3.2.1]octan-8-yl)methyl)phenyl)carbamate] | 0.57 µM | 52 µM
O=C(Nc1ccc(CC2C3CCC2CNC3)cc1)OCc1cnco1 (stereo not shown) [Compound 426, oxazol-5-ylmethyl (4-((3-azabicyclo[3.2.1]octan-8-yl)methyl)phenyl)carbamate] | 1.62 µM | 32.4 µM
CCS(=O)(=O)N1CCC(c2ccc(NC(=O)OCc3cnco3)cc2)CC1 [Compound 427, oxazol-5-ylmethyl (4-(1-(ethylsulfonyl)piperidin-4-yl)phenyl)carbamate] | 0.16 µM | 2.64 µM
O=C(Nc1ccc(C2CCN(S(=O)(=O)N3CCC3)CC2)cc1)OCc1cnco1 [Compound 428, oxazol-5-ylmethyl (4-(1-(azetidin-1-ylsulfonyl)piperidin-4-yl)phenyl)carbamate] | 0.07 µM | 2.94 µM
O=C(Nc1ccc(C2CCN(C(=O)N3CCC3)CC2)cc1)OCc1cnco1 [Compound 429, oxazol-5-ylmethyl (4-(1-(azetidine-1-carbonyl)piperidin-4-yl)phenyl)carbamate] | 0.19 µM | 41.6 µM
CCC(=O)N1CCC(c2ccc(NC(=O)OCc3cnco3)cc2)CC1 [Compound 430, oxazol-5-ylmethyl (4-(1-propionylpiperidin-4-yl)phenyl)carbamate] | 0.11 µM | 19.8 µM
O=C(Nc1ccc(C2CCN(C(=O)C3CC3)CC2)cc1)OCc1cnco1 [Compound 431, oxazol-5-ylmethyl (4-(1-(cyclopropanecarbonyl)piperidin-4-yl)phenyl)carbamate] | 0.17 µM | 27.5 µM
CN(C)S(=O)(=O)N1CCC(c2ccc(NC(=O)OCc3cnco3)cc2)CC1 [Compound 432, oxazol-5-ylmethyl (4-(1-(N,N-dimethylsulfamoyl)piperidin-4-yl)phenyl)carbamate] | 0.07 µM | 4.73 µM
CN(C)S(=O)(=O)N1CC2CC(C1)C2Cc1ccc(NC(=O)OCc2cnco2)cc1 (stereo not shown) [Compound 433, oxazol-5-ylmethyl (4-((3-(N,N-dimethylsulfamoyl)-3-azabicyclo[3.1.1]heptan-6-yl)methyl)phenyl)carbamate] | 0.21 µM | 7.43 µM
